Reference: publication PMC3648489, “The sodium glucose cotransporter 2 inhibitor empagliflozin does not prolong QT interval in a thorough QT (TQT) study” (Cardiovascular Diabetology, 2013)
Where “and” joins values, the source holds several entries; their conditions need not be identical. Equal entries are not always repeated. Where two headings read alike, the source gives them in different places.

Tests used:
[1] = test system: human ether-a-go-go related gene (hERG)-mediated potassium current; parameters: method as in unpublished data; details: transfected HEK293 cells; ref unpublished data; cited from earlier work
[2] = test system: guinea pig papillary muscle; parameters: method as in unpublished data; details: empagliflozin doses of ≥10 μM (so in the source); ref unpublished data; cited from earlier work
[3] = Earlier single-dose pharmacokinetic study of empagliflozin in healthy volunteers; type: in vivo, human; details: 200 mg versus 25 mg; based on ref 10
[4] = Empagliflozin plasma pharmacokinetics (HPLC-MS/MS) in the TQT study; type: in vivo, human; details: for Tmax / AUC(0-t) / Cmax: human; for Tmax: po, read-out: tmax, median; for AUC(0-t): read-out: AUC0−tz, gMean; for Cmax: read-out: Cmax, gMean
Procedure: Blood samples for pharmacokinetic measurements were taken one hour before drug administration and at the same post-dose time points as ECG measurements, except for the moxifloxacin periods. Empagliflozin concentrations in plasma were determined using a validated high performance liquid chromatography, tandem mass spectrometry (HPLC-MS/MS) assay with a lower limit of quantification of 1.11 nmol/L (0.5 ng/mL). Results were calculated using peak area ratios and calibration curves were created using weighted (1/x2) quadratic regression. […] Pharmacokinetic parameters included Cmax, tmax which were determined directly from the plasma concentration-time profiles of each, and area under the plasma concentration curve from zero to the last quantifiable time point (AUC0–tz), calculated using the linear trapezoidal method for ascending concentrations and the log trapezoidal method for descending concentrations. Pharmacokinetic parameters were determined using WinNonlin™ software v5.2 (Pharsight Corporation, Mountain View, California, USA).

healthy volunteers [5] = experiment: Thorough QT study: triplicate 12-lead ECG, QTcN and heart rate change from baseline; type: in vivo, human; details: for Difference from placebo in mean QTcN change from baseline, mean (SE): 1−4 hours after dosing; for QTcN mean change from baseline: ΔQTcN, adjusted mean (SE) / Difference from placebo: ΔΔHR, adjusted mean (SE) / HR mean change from baseline: ΔHR, adjusted mean (SE): 1-4 hours after administration; for Placebo-corrected MCfB in QTcN from all ECGs (90% CI): 0.5-24 hours after dosing; for Volunteers exceeding the QTcN threshold of 450 ms: 0.5-24 hours post-dose; for Difference from placebo: ΔΔQTcN (placebo-corrected MCfB in QTcN), adjusted mean: 1-4 hours after dosing, both placebo periods; for Maximum upper CI of placebo-corrected QTcN change from baseline over the time course: 90% CI; for Range of adjusted means of placebo-corrected QTcN change from baseline over the time course: time points 0.5-24 hours
Procedure: This thorough QT study (TQT) was a randomised, double-blind (moxifloxacin open), placebo-controlled crossover trial which included the following treatments: 25 mg and 200 mg empagliflozin (Boehringer Ingelheim Pharma GmbH & Co. KG); 400 mg open-label moxifloxacin (Avalox®; Bayer Vital, Leverkusen, Germany); and two placebo periods, with a washout of at least seven days between treatments. Trial medication was administered in the morning after an overnight fast.
ECG recordings were made at screening and at the end of the study as part of the safety evaluation. For the QTc evaluation, ECG recordings were made on study drug administration days (as ECG profiles) at 60, 50 and 40 minutes pre-dose (to derive the period-specific baseline), and at 0.5, 1, 1.5, 2, 2.5, 3, 4, 6, 8, 12 and 24 hours post-dose (last three time points omitted for moxifloxacin treatment). At each time point, triplicate standard 12-lead ECGs (I, II, III, aVR, aVL, aVF, V1–V6) of 10 seconds’ duration each were recorded after at least 5 minutes’ rest in the supine position using CardioSoft ECG recording machines (GE Healthcare, Freiburg, Germany). ECGs were sent to a central laboratory for evaluation of PR, QRS, RR and QT intervals. The semi-automatic approach used for determination of the fiducial points provided an automatic pre-assessment using a computer algorithm, which was reviewed by a specialist and adjusted if necessary. This review was performed blinded with regard to treatment and time point.
Data from four cardiac cycles per ECG were averaged. A population heart rate-corrected QT interval (QTcN) was derived by determining the exponent δ of the relationship: QT ~ (1000 / RR)^δ (where δ is the regression effect of the covariate) using a linear mixed model on log-transformed RR and QT data (measured in ms). Data from triplicate ECGs were then averaged for each time point.
The primary endpoint was the mean change from baseline (MCfB) in QTcN which was the mean QTcN derived from ECGs obtained 1–4 hours post-dose minus mean QTcN from baseline ECGs obtained pre-dose at each visit. Plasma concentrations of both empagliflozin and moxifloxacin were expected to reach peak levels within this three-hour window, ensuring the most relevant levels of drug exposure.
(§1) Secondary endpoints were the changes from period baseline in QTcN at any time point between 0.5–24 hours after dosing. In addition, the MCfB 2–4 hours after dosing (for assessment of the moxifloxacin effect), and the MCfB of all ECGs taken 0.5–24 hours after dosing were evaluated. Safety and tolerability were evaluated based on physical examination, vital signs, ECG, clinical laboratory tests, adverse events (AEs) and the physician’s assessment of global tolerability.
Briefly, the primary analysis compared changes in the primary endpoint (QTcN MCfB over 1–4 hours) using an analysis of covariance (ANCOVA) model with ‘sequence’, ‘period’ and ‘treatment’ as fixed effects, ‘subjects nested within sequences’ as a random effect, and ‘pre-dose baseline’ as a covariate. Analyses were performed using pair-wise comparisons of the trial treatments. The saturated repeated measurements crossover (RMC) model with unstructured covariance using pair-wise comparisons of the trial treatments was used to evaluate changes from baseline in QTcN at any time point between 0.5–24 hours after dosing. […] For descriptive statistics and the exposure-response analysis, the changes from baseline in QTcN of the placebo periods were averaged prior to the derivation of the placebo corrected MCfB.
In agreement with ICH E14, all tests were performed one-sided against the threshold level of regulatory concern of 10 ms with type-I error of α=5%, which is statistically equivalent to the calculation of two-sided 90% confidence intervals for the adjusted mean estimates. […]

healthy volunteers [6] = experiment: Safety and tolerability (adverse events) in the TQT study; type: in vivo, human; details: human, in vivo
Procedure: as §1
Categorical endpoints such as AEs, cardiologic assessments and occurrence of ECG intervals beyond thresholds of regulatory concern (e.g. QTc >450 ms) were analysed based on incidence rates adjusted for the number of periods in which the treatment was given. Additionally, the analysis of such events in periods with any of the two doses of empagliflozin compared with the two placebo periods provides a direct comparison of incidence rates. All analyses were performed on the “full analysis set”, which comprised all recorded data of all subjects who received at least one dose of study treatment and had at least one ECG endpoint assessment at baseline and post treatment. No imputation for missing data was planned or performed.

[7] = empagliflozin 25 mg single oral dose, plasma, n=28
[8] = empagliflozin 200 mg single oral dose, plasma, n=30

SMILES: OC[C@H]1O[C@@H](c2ccc(Cl)c(Cc3ccc(O[C@H]4CCOC4)cc3)c2)[C@H](O)[C@@H](O)[C@@H]1O [Empagliflozin, empagliflozin]
- Interaction with hERG-mediated potassium current [1]: No relevant interactions
- Effect on action potential configuration or contractile function [2]: no effect on action potentials
- Cmax ratio supratherapeutic dose versus therapeutic dose [3]: ~ 7 fold
- Dose proportionality of empagliflozin exposure ([4]; 25 mg and 200 mg single doses): increased approximately dose proportionally
- tmax, median [4, 7]: 1.5 h
- Tmax ([4]; plasma, 25 mg, empagliflozin 25 mg single oral dose, plasma, n=28): ~1.5 h
- Tmax ([4]; plasma, 200 mg, empagliflozin 200 mg single oral dose, plasma, n=30): ~1.8 h
- AUC(0-t) [4, 7]: 4.86 µM·h
- Cmax [4, 7]: 768 nM
- AUC(0-t) [4, 8]: 36.4 µM·h
- Cmax [4, 8]: 4860 nM
- Difference from placebo in mean QTcN change from baseline, mean (SE) (healthy volunteers [5]; 25 mg empagliflozin, primary analysis model with placebo period 1 only): 0.2 (0.9) ms
- Difference from placebo in mean QTcN change from baseline, mean (SE) (healthy volunteers [5]; 25 mg empagliflozin, primary analysis model with placebo period 2 only): 0.6 (1.0) ms
- Difference from placebo in mean QTcN change from baseline, mean (SE) (healthy volunteers [5]; 200 mg empagliflozin, primary analysis model with placebo period 1 only): -0.5 (0.8) ms
- Difference from placebo in mean QTcN change from baseline, mean (SE) (healthy volunteers [5]; 200 mg empagliflozin, primary analysis model with placebo period 2 only): 0.1 (0.8) ms
- Slope estimates of exposure-response relationship between empagliflozin and heart rate (healthy volunteers [5]; both doses (25 mg and 200 mg), CIs include zero): slope estimates close to zero
- Range of adjusted means of placebo-corrected heart rate change from baseline over the time course (healthy volunteers [5]; both empagliflozin doses (25 mg and 200 mg)): -1.2 to 1.5 bpm
- 90% CIs of placebo-corrected heart rate change from baseline over the time course (healthy volunteers [5]; both empagliflozin doses (25 mg and 200 mg), all CIs within): -3 to 3 bpm
- Intercept of exposure-response analysis of placebo-corrected QTcN change from baseline (healthy volunteers [5]; empagliflozin 25 mg): 0.35 ms
- Slope (estimate) of exposure-response analysis of placebo-corrected QTcN change from baseline (healthy volunteers [5]; empagliflozin 25 mg): -0.0007 ms/(nmol/L)
- QTcN mean change from baseline: ΔQTcN, adjusted mean (SE) (healthy volunteers [5]; empagliflozin 25 mg single oral dose, n=28): 4.3 (1.1) ms
- Placebo-corrected MCfB in QTcN from all ECGs (90% CI) (healthy volunteers [5]; empagliflozin 25 mg): 0.7 (90% CI: -0.4, 1.7) ms
- Volunteers exceeding the QTcN threshold of 450 ms (healthy volunteers [5]; empagliflozin 25 mg, one volunteer): 3.6%
- Difference from placebo: ΔΔHR, adjusted mean (SE) (healthy volunteers [5]; empagliflozin 25 mg): -0.9 (0.5) bpm
- HR mean change from baseline: ΔHR, adjusted mean (SE) (healthy volunteers [5]; empagliflozin 25 mg): -1.2 (0.5) bpm
- Difference from placebo: ΔΔQTcN (placebo-corrected MCfB in QTcN), adjusted mean (healthy volunteers [5]; empagliflozin 25 mg): 0.6 (0.8) ms
- Difference from placebo: ΔΔQTcN (placebo-corrected MCfB in QTcN), adjusted mean (healthy volunteers [5]; empagliflozin 25 mg, listed as empagliflozin): 0.6 (90% CI: -0.7, 1.9) ms and 0.6 (90% confidence interval [CI]: -0.7, 1.9) ms
- Maximum upper CI of placebo-corrected QTcN change from baseline over the time course (healthy volunteers [5]; empagliflozin 25 mg): 4.7 ms
- Predicted value of placebo-corrected change from baseline QTcN at gMean of Cmax, estimate (healthy volunteers [5]; empagliflozin 25 mg, at gMean Cmax 768 nmol/L): -0.20 ms
- Range of adjusted means of placebo-corrected QTcN change from baseline over the time course (healthy volunteers [5]; empagliflozin 25 mg): -2.7 to 2.2 ms
- Intercept of exposure-response analysis of placebo-corrected QTcN change from baseline (healthy volunteers [5]; empagliflozin 200 mg): -0.60 ms
- Slope (estimate) of exposure-response analysis of placebo-corrected QTcN change from baseline (healthy volunteers [5]; empagliflozin 200 mg): -0.0000 ms/(nmol/L)
- QTcN mean change from baseline: ΔQTcN, adjusted mean (SE) (healthy volunteers [5]; empagliflozin 200 mg single oral dose, n=30): 3.4 (0.9) ms
- Placebo-corrected MCfB in QTcN from all ECGs (90% CI) (healthy volunteers [5]; empagliflozin 200 mg): -0.2 (-1.2, 0.9) ms
- Volunteers exceeding the QTcN threshold of 450 ms (healthy volunteers [5]; empagliflozin 200 mg, two volunteers): 6.7%
- Difference from placebo: ΔΔHR, adjusted mean (SE) (healthy volunteers [5]; empagliflozin 200 mg): 0.0 (0.5) bpm
- HR mean change from baseline: ΔHR, adjusted mean (SE) (healthy volunteers [5]; empagliflozin 200 mg): -0.3 (0.5) bpm
- Difference from placebo: ΔΔQTcN (placebo-corrected MCfB in QTcN), adjusted mean (healthy volunteers [5]; empagliflozin 200 mg): -0.2 (0.7) ms
- Difference from placebo: ΔΔQTcN (placebo-corrected MCfB in QTcN), adjusted mean (healthy volunteers [5]; empagliflozin 200 mg, listed as empagliflozin): -0.2 (-1.4, 0.9) ms
- Maximum upper CI of placebo-corrected QTcN change from baseline over the time course (healthy volunteers [5]; empagliflozin 200 mg): 3.5 ms
- Predicted value of placebo-corrected change from baseline QTcN at gMean of Cmax, estimate (healthy volunteers [5]; empagliflozin 200 mg, at gMean Cmax 4860 nmol/L): -0.64 ms
- Range of adjusted means of placebo-corrected QTcN change from baseline over the time course (healthy volunteers [5]; empagliflozin 200 mg): -1.8 to 1.6 ms
- Volunteers experiencing AEs (healthy volunteers [6]): 23.3%
